Measurements from paper PMC10970734, “Identification of an Intravenous Injectable NK1 Receptor Antagonist for Use in Traumatic Brain Injury” (International Journal of Molecular Sciences, 2024).

Assays:
rodent model of TBI [1] = experiment: Mortality after severe impact-acceleration TBI; format: in vivo, Sprague Dawley rats; details: rat severe TBI, 10 mg/kg 30 min after injury
Description: Injury was induced using an impact-acceleration model of TBI which generates a rodent form of diffuse axonal injury, a major feature of clinical head injury. The level of injury induced in these studies was classified as “severe” [60]. In terms of assessing treatment effects, the study was performed in a blinded manner. […] In line with the “severe” nature of the injury, significant mortality rates were observed within the cohort of injured animals. However, the mortality rates varied between the treatment groups. In the “drug vehicle” group, a mortality rate of 30% was observed, which is in line with the nature of the injury.
Injury was induced in halothane-anesthetized (ProVet) male Sprague Dawley rats (400 ± 20 g) using acceleration-induced impact TBI [29, 93]. This model involves impacting a 10 mm diameter, 3 mm thick stainless steel disc fixed centrally to the exposed skull between the lambda and bregma with an accelerating impactor. The impactor was a 450 g brass weight dropped from a height of 2 m. Earlier studies have shown that the impact acceleration injury produces diffuse axonal injury, oedema, BBB opening, Mg^2+ decline, and moderate-to-severe neurologic deficits. All animals were fed and watered ad libitum before the induction of injury. […] Blood pressure was monitored, both before and after injury, using a femoral arterial line. […]

rodent model of TBI [2] = experiment: Motor function after TBI, rotarod test; format: in vivo, Sprague Dawley rats; details: rat TBI, 10 mg/kg 30 min post-injury
Description: The maximum duration of the task was 120 s.
Injury was induced in halothane-anesthetized (ProVet) male Sprague Dawley rats (400 ± 20 g) using acceleration-induced impact TBI [29, 93]. This model involves impacting a 10 mm diameter, 3 mm thick stainless steel disc fixed centrally to the exposed skull between the lambda and bregma with an accelerating impactor. The impactor was a 450 g brass weight dropped from a height of 2 m. […] All animals were fed and watered ad libitum before the induction of injury. During both surgery and the immediate recovery phase, rat rectal temperature was maintained using a thermostatically controlled heating pad. Immediately after injury, animals were manually ventilated until stable respiration was restored, usually in <5 min. After injury, all wounds were sutured. Blood pressure was monitored, both before and after injury, using a femoral arterial line.
Motor and cognitive outcomes in animals (n = 6 per group) were assessed using the rotarod and Barnes maze, respectively, as described in detail elsewhere [64]. The rotarod consists of a motorized rotating assembly of 18 rods (1 mm in diameter) upon which the animals were placed. The rotational speed of the device was increased from 0 to 30 r.p.m. and the duration (in seconds) when the animals either completed the task, fell from the rods, or gripped the rods and spun for two consecutive revolutions rather than walking actively was recorded as the rotarod score. […] After activating the bright lights and aversive auditory stimulus, the latency (in seconds) for the animal to locate and enter the escape tunnel was recorded. All animals were pretrained on both functional outcome tests twice per day over 5 days before injury to establish a normal, uninjured baseline.

rodent model of TBI [3] = experiment: Cognitive function after TBI, Barnes maze; format: in vivo, Sprague Dawley rats; details: rat TBI, 10 mg/kg 30 min post-injury, 10 days
Description: Cognitive outcome was assessed using the Barnes maze in order to reduce the potential confounding effects that may be associated with tests such as the Morris water maze. In the Barnes maze, animals were placed under a cover in the centre of an elevated 1.2 m diameter board containing 19 holes around the periphery. One hole contained the entrance to a darkened escape tunnel that was not visible from the surface, relying on the animal to use surrounding visual cues to locate the tunnel. The time, in seconds, for the animal to locate and enter the escape tunnel was recorded. Following pre-training, the effect of injury, and post-injury treatment, on the time taken for the animal to locate the tunnel was measured (Figure 7). […]
Injury was induced in halothane-anesthetized (ProVet) male Sprague Dawley rats (400 ± 20 g) using acceleration-induced impact TBI [29, 93]. […] Blood pressure was monitored, both before and after injury, using a femoral arterial line. […]
Motor and cognitive outcomes in animals (n = 6 per group) were assessed using the rotarod and Barnes maze, respectively, as described in detail elsewhere. […] The rotational speed of the device was increased from 0 to 30 r.p.m. and the duration (in seconds) when the animals either completed the task, fell from the rods, or gripped the rods and spun for two consecutive revolutions rather than walking actively was recorded as the rotarod score. […]

[4] = design: method as in PMID 20795794; details: parent drug; cited from earlier work
NK1R = details: cited from earlier work
[5] = design: method as in PMID 20795794, PMID 18042005; details: slow infusion 20-30 min; cited from earlier work

**Q.** What does the source list for `C[C@]12N[C@H](Cc3ccccc31)c1ccccc12` [MK801]?
**A.** Mortality rate (rodent model of TBI [1]): 48%; Motor function, rotarod score (rodent model of TBI [2]; 10 days): did not provide any beneficial outcome relative to the drug vehicle; Recovery of motor function over the 10-day test period (rodent model of TBI [2]; rotarod): approximately 50%; Cognitive function, Barnes maze time to locate escape tunnel (rodent model of TBI [3]): performance returning close to pre-injury by the end of the study period

**Q.** With `C[C@@H](O[C@H]1OCCN(Cc2n[nH]c(=O)[nH]2)[C@H]1c1ccc(F)cc1)c1cc(C(F)(F)F)cc(C(F)(F)F)c1` [aprepitant] as the molecule, how does the Aqueous solubility [4] read?
**A.** 0.2 µg/mL

**Q.** For `CC(=O)N[C@@H](Cc1c[nH]c2ccccc12)C(=O)O` [NAT, N-acetyl-L-tryptophan], which NK1R binding (NK1R) is on record?
**A.** lack of NK1R binding

**Q.** With `C[C@@H](O[C@H]1OCCN(Cc2nc(O)n(P(=O)(O)O)n2)[C@H]1c1ccc(F)cc1)c1cc(C(F)(F)F)cc(C(F)(F)F)c1` [Fosaprepitant, fosaprepitant] as the molecule, how does the “Time to conversion to aprepitant after end of infusion” value [5] read?
**A.** ≤ 30 min
